Measured values from paper PMC2947195 (Biochemical Journal, 2010).
Where a chain is given by its changes, count along the chain named. Like-named read-outs stand apart in the source and are kept apart here.

Experiments:
Assay in all cases: Competitive inhibition of [3H]MTX uptake
Assay type in all cases: cell-based
S313A hRFC = molecular target: T1, S313A hRFC (Homo sapiens, UniProt P41440, S313A)
T1 sequence (P41440 1-591 S313A): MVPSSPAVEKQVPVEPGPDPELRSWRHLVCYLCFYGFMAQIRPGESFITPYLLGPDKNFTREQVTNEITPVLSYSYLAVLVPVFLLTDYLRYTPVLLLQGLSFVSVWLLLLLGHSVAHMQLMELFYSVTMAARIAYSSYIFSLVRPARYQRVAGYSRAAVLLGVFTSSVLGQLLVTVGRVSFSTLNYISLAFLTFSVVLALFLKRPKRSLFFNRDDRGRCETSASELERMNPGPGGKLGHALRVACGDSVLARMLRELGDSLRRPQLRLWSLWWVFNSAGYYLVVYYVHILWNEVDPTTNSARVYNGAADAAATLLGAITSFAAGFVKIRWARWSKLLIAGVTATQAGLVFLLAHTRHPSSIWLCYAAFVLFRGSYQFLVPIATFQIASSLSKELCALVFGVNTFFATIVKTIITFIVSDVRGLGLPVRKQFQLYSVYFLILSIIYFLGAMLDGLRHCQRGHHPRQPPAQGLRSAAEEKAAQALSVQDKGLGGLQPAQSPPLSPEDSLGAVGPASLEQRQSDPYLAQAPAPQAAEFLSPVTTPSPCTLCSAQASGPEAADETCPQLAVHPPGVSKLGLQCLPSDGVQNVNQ

wt hRFC = molecular target: T2, wt hRFC (Homo sapiens, UniProt P41440)
T2 sequence (P41440 1-591): T1 sequence (P41440 1-591 S313A) with A313S

S313T hRFC = molecular target: T3, S313T hRFC (Homo sapiens, UniProt P41440, S313T); details: for decrease of Ki compared with wt hRFC: S313T hRFC versus wt hRFC
T3 sequence (P41440 1-591 S313T): T1 sequence (P41440 1-591 S313A) with A313T

| Ki (S313A hRFC) | Ki (wt hRFC) | Ki (S313T hRFC) | decrease of Ki compared with wt hRFC (S313A hRFC; S313A hRFC versus wt hRFC) | decrease of Ki compared with wt hRFC (S313T hRFC) | increase of Ki compared with wt carrier (S313A hRFC; S313A hRFC versus wt hRFC) | Ki (S313A hRFC; S313A hRFC, inhibition of [3H]MTX (1 μM) uptake, Dixon plots, mean±S.E.M., n=3) | Ki (wt hRFC; wt hRFC, inhibition of [3H]MTX (1 μM) uptake, Dixon plots, mean±S.E.M., n=3) | Ki (S313T hRFC; S313T hRFC, inhibition of [3H]MTX (1 μM) uptake, Dixon plots, mean±S.E.M., n=3) | Structure (SMILES) |
| --- | --- | --- | --- | --- | --- | --- | --- | --- | --- |
| 4.25 ± 0.53 µM | 5.48 ± 1.1 µM | 2.23 ± 0.38 µM |  |  |  |  |  |  | CCC(Cc1cnc2nc(N)nc(N)c2n1)c1ccc(C(=O)N[C@@H](CCC(=O)O)C(=O)O)cc1 (stereo partly drawn) [Edatrexate, 10-ethyl-10-deazaaminopterin] |
| 3.43 ± 0.58 µM | 7.03 ± 0.02 µM | 2.75 ± 0.15 µM | 2–3 fold | 2–3 fold |  |  |  |  | Nc1nc(N)c2nc(CNc3ccc(C(=O)N[C@@H](CCC(=O)O)C(=O)O)cc3)cnc2n1 [Aminopterin, aminopterin] |
| 435 ± 82.7 µM | 194 ± 5.45 µM | 237 ± 58.4 µM |  |  | ~ 2 fold |  |  |  | Nc1nc(=O)c2nc(CNc3ccc(C(=O)N[C@@H](CCC(=O)O)C(=O)O)cc3)cnc2[nH]1 [Folic acid, folic acid] |
| 12.3 ± 0.88 µM | 18.7 ± 1.54 µM | 7.74 ± 0.66 µM | 2–3 fold | 2–3 fold |  |  |  |  | Nc1nc2c(c(=O)[nH]1)N(C=O)C(CNc1ccc(C(=O)N[C@@H](CCC(=O)O)C(=O)O)cc1)CN2 (stereo partly drawn) [Leucovorin, (6R,S)-5-formyl tetrahydrofolate] |
|  |  |  | 2–3 fold | 2–3 fold |  |  |  |  | Nc1nc2[nH]cc(CCc3ccc(C(=O)N[C@@H](CCC(=O)O)C(=O)O)cc3)c2c(=O)[nH]1 [Pemetrexed, N-{4-[2(2-amino-3,4-dihydro-4-oxo-7H-pyrrolo[2,3-d]pyrimidin-5-yl)ethyl]benzoyl}-L-glutamic acid] |

More lines, now with the values behind:

| Structure (SMILES) | Ki (S313A hRFC) | Ki (wt hRFC) | Ki (S313T hRFC) | decrease of Ki compared with wt hRFC (S313A hRFC; S313A hRFC versus wt hRFC) | decrease of Ki compared with wt hRFC (S313T hRFC) | increase of Ki compared with wt carrier (S313A hRFC; S313A hRFC versus wt hRFC) | Ki (S313A hRFC; S313A hRFC, inhibition of [3H]MTX (1 μM) uptake, Dixon plots, mean±S.E.M., n=3) | Ki (wt hRFC; wt hRFC, inhibition of [3H]MTX (1 μM) uptake, Dixon plots, mean±S.E.M., n=3) | Ki (S313T hRFC; S313T hRFC, inhibition of [3H]MTX (1 μM) uptake, Dixon plots, mean±S.E.M., n=3) |
| --- | --- | --- | --- | --- | --- | --- | --- | --- | --- |
| Cc1nc2ccc(CN(C)c3ccc(C(=O)N[C@@H](CCC(=O)O)C(=O)O)s3)cc2c(=O)[nH]1 [Raltitrexed, N-{5-[N-(3,4-dihydro-2methyl-4-oxyquinazolin-6-ylmethyl)-N-methyl-amino]-2-thienoyl}-L-glutamic acid] |  |  |  |  | 2–3 fold |  |  |  |  |
| C#CCN(Cc1cc2c(=O)[nH]c(C)nc2cc1C)c1ccc(C(=O)N[C@@H](CCc2nnn[nH]2)C(=O)O)c(F)c1 [ZD9331, (2S)-2-{O-fluoro-p-[N-(2,7dimethyl-4-oxo-3,4-dihydro-quinazolin-6-ylmethyl)-N-(prop-2ynyl)amino]benzamido}-4-(tetrazol-5-yl)-butyric acid] | 2.96 ± 0.52 µM | 4.42 ± 0.93 µM | 2.31 ± 0.18 µM |  |  |  |  |  |  |
| Cc1nc2ccc3ccc(CNc4ccc5c(c4)CN([C@@H](CCC(=O)O)C(=O)O)C5=O)cc3c2c(=O)[nH]1 [GW1843U89, (S)-2-[5-({[1,2-dihydro-3-methyl-1-oxo-benzo(f)quinazolin-9-yl]methyl}amino)1-oxo-2-isoindolinyl] glutaric acid] | 2.61 ± 0.5 µM | 2.1 ± 0.01 µM | 0.75 ± 0.06 µM |  | 2–3 fold |  |  |  |  |
| Nc1nc(N)c2nc(CNc3ccc(C(=O)N[C@@H](CCCNC(=O)c4ccccc4C(=O)O)C(=O)O)cc3)cnc2n1 [PT523, N^α-(4-amino-4-deoxypteroyl)-N^δ-hemiphthaloyl-L-ornithine] |  |  |  |  |  |  | 3.13 ± 0.17 µM | 4.56 ± 0.97 µM | 2.86 ± 0.85 µM |
